Ki data for 17 compounds are collected here from patent publication US20050209278A1, “Piperidinyl- and piperazinyl-sulfonylmethyl hydroxamic acids and their use as protease inhibitors” (priority 2002, published 2005).

Common to all, as to assay type: biochemical
Assay [1] concerns the target T1, MMP-13 (Homo sapiens, UniProt P45452).
T1 construct: made in house; host or cells: baculovirus / insect cells
The assay is described as follows: MMP-13 inhibition (in vitro Ki). To be noted: Table 8; read-out: MMP-13 Ki.

Assay [2] addresses T2, MMP-9 (Homo sapiens, UniProt P14780).
T2 construct: made in house; host or cells: MMP-9-transfected HT1080 cells (spent media)
The assay is described as follows: MMP-9 inhibition (in vitro Ki). To be noted: Table 8; read-out: MMP-9 Ki.

The target of assay [3] is T3, MMP-1 (Homo sapiens, UniProt P03956).
T3 construct: made in house; host or cells: MMP-1-transfected HT-1080 cells (spent media)
T3 sequence (P03956 100-469): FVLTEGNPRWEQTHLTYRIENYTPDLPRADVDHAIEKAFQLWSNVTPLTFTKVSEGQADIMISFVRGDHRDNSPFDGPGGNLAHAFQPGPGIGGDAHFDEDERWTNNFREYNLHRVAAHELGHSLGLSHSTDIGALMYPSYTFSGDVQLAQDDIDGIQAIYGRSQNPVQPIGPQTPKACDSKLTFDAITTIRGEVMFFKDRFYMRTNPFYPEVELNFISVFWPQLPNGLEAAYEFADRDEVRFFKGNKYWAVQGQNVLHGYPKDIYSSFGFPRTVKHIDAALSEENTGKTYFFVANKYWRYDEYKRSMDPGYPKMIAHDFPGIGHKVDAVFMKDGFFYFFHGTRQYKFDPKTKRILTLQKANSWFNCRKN
In words: MMP-1 inhibition (in vitro Ki). The settings on record: Table 8; read-out: MMP-1 Ki.

The target of assay [4] is T4, MMP-2 (Homo sapiens, UniProt P08253).
T4 construct: made in house; host or cells: MMP-2-transfected p2AHT2 cells
T4 sequence (P08253 110-660): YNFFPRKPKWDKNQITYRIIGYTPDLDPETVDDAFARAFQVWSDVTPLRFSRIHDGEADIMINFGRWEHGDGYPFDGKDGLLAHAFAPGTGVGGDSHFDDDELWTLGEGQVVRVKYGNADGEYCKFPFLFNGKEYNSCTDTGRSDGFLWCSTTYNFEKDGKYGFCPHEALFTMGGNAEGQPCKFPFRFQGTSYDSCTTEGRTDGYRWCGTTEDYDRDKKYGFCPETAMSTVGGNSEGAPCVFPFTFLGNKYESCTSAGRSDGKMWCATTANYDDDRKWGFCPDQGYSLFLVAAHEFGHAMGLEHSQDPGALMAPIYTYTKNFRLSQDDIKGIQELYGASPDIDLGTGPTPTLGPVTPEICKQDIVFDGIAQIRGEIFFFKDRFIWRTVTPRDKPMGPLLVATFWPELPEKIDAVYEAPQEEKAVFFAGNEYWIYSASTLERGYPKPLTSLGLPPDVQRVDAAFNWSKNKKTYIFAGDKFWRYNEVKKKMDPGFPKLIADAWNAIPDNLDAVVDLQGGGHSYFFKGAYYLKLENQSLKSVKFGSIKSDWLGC
The assay is described as follows: MMP-2 inhibition (in vitro Ki). The settings on record: Table 8; read-out: MMP-2 Ki.

Assay [5] addresses T5, MMP-14 (Homo sapiens, UniProt P50281).
T5 construct: The catalytic domain enzyme was expressed in E. coli inclusion bodies, solubilized in urea; made in house
In words: MMP-14 inhibition (in vitro Ki). To be noted: Table 8; read-out: MMP-14 Ki.

The structures appear in SMILES notation. pKi: −log10 of the molar value. Where a name gives a salt, the structure may show the parent alone. A value given as a limit tells only on which side of the number the result lay.

T2 sequence (P14780 107-707 limits assumed): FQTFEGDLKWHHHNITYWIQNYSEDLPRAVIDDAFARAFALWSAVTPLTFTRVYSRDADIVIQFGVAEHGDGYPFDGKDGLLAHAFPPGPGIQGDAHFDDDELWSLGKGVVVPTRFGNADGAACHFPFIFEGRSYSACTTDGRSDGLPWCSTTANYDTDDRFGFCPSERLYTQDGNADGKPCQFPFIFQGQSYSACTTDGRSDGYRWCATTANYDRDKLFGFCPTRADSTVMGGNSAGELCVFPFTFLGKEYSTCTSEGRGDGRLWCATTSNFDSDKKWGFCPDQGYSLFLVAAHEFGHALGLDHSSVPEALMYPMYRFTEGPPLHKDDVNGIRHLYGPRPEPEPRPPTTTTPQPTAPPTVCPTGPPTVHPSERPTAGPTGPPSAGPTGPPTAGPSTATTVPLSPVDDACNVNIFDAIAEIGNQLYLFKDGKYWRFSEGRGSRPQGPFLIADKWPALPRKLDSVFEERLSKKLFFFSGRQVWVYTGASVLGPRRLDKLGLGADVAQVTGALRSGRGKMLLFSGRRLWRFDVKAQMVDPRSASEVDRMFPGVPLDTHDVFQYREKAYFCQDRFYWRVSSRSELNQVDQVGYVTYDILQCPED

`O=C(NO)C1(S(=O)(=O)N2CCC(CCOCCCC(F)(F)F)CC2)CCOCC1` [Example A45, 4-{4-[2-(4,4,4-trifluoro-butoxy)-ethyl]-piperidine-1-sulfonyl}-tetrahydro-pyran-4-carboxylic Acid Hydroxyamide]: the pKi was 7.91 in assay [1]; 7.77 in assay [2]; less than 5.00 in assay [3]; 7.63 in assay [4]; less than 5.00 in assay [5].
For `O=C(NO)C1(S(=O)(=O)N2CCC(CCCCOCCC(F)(F)F)CC2)CCOCC1` [Example A46, 4-{4-[4-(3,3,3-trifluoro-propoxy)-butyl]-piperidine-1-sulfonyl}-tetrahydro-pyran-4-carboxylic Acid Hydroxyamide], the pKi in assay [1] is 9.28; in assay [2], 7.76; in assay [3] it was 5.82; in assay [4], 8.22; in assay [5], 5.44.
For `CCCCCOCCC1CCN(S(=O)(=O)C2(C(=O)NO)CCOCC2)CC1` [Example A47, 4-[4-(2-pentyloxy-ethyl)-piperidine-1-sulfonyl]-tetrahydro-pyran-4-carboxylic Acid Hydroxyamide] the same measures were 7.90, 7.99, less than 5.00, 7.73 and less than 5.00.
The corresponding values for `O=C(NO)C1(S(=O)(=O)N2CCC(OCCCCCCC(F)(F)F)CC2)CCOCC1` [Example A48, 4-[4-(7,7,7-trifluoro-heptyloxy)-piperidine-1-sulfonyl]-tetrahydro-pyran-4-carboxylic Acid Hydroxyamide] are 8.95, 8.08, less than 5.00, 8.46 and 5.57.
Turning to `O=C(NO)C1(S(=O)(=O)N2CCC(OCCCCCC(F)(F)F)CC2)CCOCC1` [Example A49, 4-[4-(6,6,6-trifluoro-hexyloxy)-piperidine-1-sulfonyl]-tetrahydro-pyran-4-carboxylic Acid Hydroxyamide], the pKi in assay [1] is 8.54; in assay [2] it was 8.51; in assay [3], less than 5.00; in assay [4], 8.42; in assay [5], 5.17.
`O=C(NO)C1(S(=O)(=O)N2CCC(OCCCCCC(F)(F)C(F)(F)F)CC2)CCOCC1` [Example A50, 4-[4-(6,6,7,7,7-pentafluoro-heptyloxy)-piperidine-1-sulfonyl]-tetrahydro-pyran-4-carboxylic Acid Hydroxyamide]: the pKi was 9.22 in assay [1]; 8.15 in assay [2]; less than 5.00 in assay [3]; 8.80 in assay [4]; 5.34 in assay [5].
For `O=C(NO)C1(S(=O)(=O)N2CCC(CCCCCCC(F)(F)C(F)(F)F)CC2)CCOCC1` [Example A51, 4-[4-(7,7,8,8,8-pentafluoro-octyl)-piperidine-1-sulfonyl]-tetrahydro-pyran-4-carboxylic Acid Hydroxyamide] the same measures were 9.57, 9.00, 5.29, 9.57 and 5.90.
In the case of `O=C(NO)C1(S(=O)(=O)N2CCC(CCCCCCCC(F)(F)F)CC2)CCOCC1` [Example A52, 4-[4-(8,8,8-trifluoro-octyl)-piperidine-1-sulfonyl]-tetrahydro-pyran-4-carboxylic Acid Hydroxyamide], the pKi in assay [1] is 9.64; in assay [2] it was 8.99; in assay [3], 5.41; in assay [4], 9.26; in assay [5], 6.04.
The corresponding values for `O=C(NO)C1(S(=O)(=O)N2CCC(CCCCC(F)(F)C(F)(F)F)CC2)CCOCC1` [Example A53, 4-[4-(5,5,6,6,6-pentafluoro-hexyl)-piperidine-1-sulfonyl]-tetrahydro-pyran-4-carboxylic Acid Hydroxyamide] are 8.61, 8.61, 5.54, 8.96 and 5.63.
Take `O=C(NO)C1(S(=O)(=O)N2CCC(CCCCCC(F)(F)C(F)(F)F)CC2)CCOCC1` [Example A54, 4-[4-(6,6,7,7,7-pentafluoro-heptyl)-piperidine-1-sulfonyl]-tetrahydro-pyran-4-carboxylic Acid Hydroxyamide]: the pKi is 9.17 in assay [1]; 9.09 in assay [2]; less than 5.00 in assay [3]; 8.97 in assay [4]; 5.47 in assay [5].
For `O=C(NO)C1(S(=O)(=O)N2CCC(c3ccc(CCC(F)(F)C(F)(F)F)cn3)CC2)CCCCC1` [Example A56, N-hydroxy-1-({4-[5-(3,3,4,4,4-pentafluorobutyl)pyridin-2-yl]piperidin-1-yl}sulfonyl)cyclohexanecarboxamide Hydrochloride] the same measures were 9.85, 9.82, 5.61, 9.33 and 6.00.
As for `O=C(NO)C1(S(=O)(=O)N2CCC(c3ccc(OCC(F)(F)F)cn3)CC2)CCOCC1` [Example A57, N-hydroxy-4-({4-[5-(2,2,2-trifluoroethoxy)pyridin-2-yl]piperidin-1-yl}sulfonyl)tetrahydro-2H-pyran-4-carboxamide Hydrochloride], the pKi was 9.47 in assay [1]; 9.32 in assay [2]; 5.80 in assay [3]; 9.28 in assay [4]; 5.69 in assay [5].
In the case of `O=C(NO)C1(S(=O)(=O)N2CCC(c3ccc(OCC(F)(F)C(F)(F)F)cn3)CC2)CCOCC1` [Example A58, N-hydroxy-4-({4-[5-(2,2,3,3,3-pentafluoropropoxy)pyridin-2-yl]piperidin-1-yl}sulfonyl)tetrahydro-2H-pyran-4-carboxamide Hydrochloride], the pKi was 9.62 in assay [1]; 8.86 in assay [2]; 5.81 in assay [3]; 9.28 in assay [4]; 5.21 in assay [5].
For `O=C(NO)C1(S(=O)(=O)N2CCC(c3ccc(OCC(F)(F)C(F)F)cn3)CC2)CCOCC1` [Example A59, N-hydroxy-4-({4-[5-(2,2,3,3-tetrafluoropropoxy)pyridin-2-yl]piperidin-1-yl}sulfonyl)tetrahydro-2H-pyran-4-carboxamide Hydrochloride] the same measures were 9.21, 8.81, 5.78, 9.12 and 5.29.
For the compound `CCC(CC)(C(=O)NO)S(=O)(=O)N1CCC(c2ccc(CCC(F)(F)C(F)(F)F)cn2)CC1` [Example A60, 2-ethyl-N-hydroxy-2-({4-[5-(3,3,4,4,4-pentafluorobutyl)pyridin-2-yl]piperidin-1-yl}sulfonyl)butanamide Hydrochloride], the pKi is 9.40 in assay [1]; 9.20 in assay [2]; 5.04 in assay [3]; 8.91 in assay [4]; 5.22 in assay [5].
For `COCCC(CCOC)(C(=O)NO)S(=O)(=O)N1CCC(c2ccc(CCC(F)(F)C(F)(F)F)cn2)CC1` [Example A61, N-hydroxy-4-methoxy-2-(2-methoxyethyl)-2-({4-[5-(3,3,4,4,4-pentafluorobutyl)pyridin-2-yl]piperidin-1-yl}sulfonyl)butanamide Hydrochloride] the same measures were 9.80, 9.42, 5.45, 9.01 and 5.38.
The corresponding values for `O=C(NO)C1(S(=O)(=O)N2CCN(c3ccc(CCCC(F)(F)F)c(F)c3)CC2)CCN(C2CC2)CC1` [Example A62, 1-cyclopropyl-4-({4-[3-fluoro-4-(4,4,4-trifluorobutyl)phenyl]piperazin-1-yl}sulfonyl)-N-hydroxypiperidine-4-carboxamide Hydrochloride] are 9.25, 8.76, less than 5.00, 9.14 and 5.04.
